The assay concerns isolated stratum corneum (SC). Nature of the assay: Evaluation of the moisturizing potential on isolated stratum corneum by measurement with a Corneometer. Particulars: for Mean DHCMiactive agent corr: 5% by weight in water/n-propanol (80/20), 5 μl/cm2 on SC, T4h vs T0h, 75% relative humidity, 25° C., relative percentage with carrier control 0% and glycerol 100%; for dielectric capacitance of the stratum corneum (SC): compounds at 5% by weight. Here is the method:
B): Evaluation of the Moisturizing Potential on Isolated Stratum Corneum by Measurement with a Corneometer
A test was performed to evaluate the moisturizing potential of the compounds of the invention formulated in an aqueous solution to an amount of 5% by weight relative to the total weight of the composition.
The technique makes it possible to measure the dielectric capacitance of the stratum corneum (SC), which depends on the mean dielectric permittivity value of the tissue. The dielectric permittivity varies greatly with the amount of water contained in the SC.
The SC samples are conditioned at 75% relative humidity and at 25° C. before/during the measurements and the treatment. The capacitance measurement is performed using a Corneometer™ (Courage & Khazaka, Germany).
The compound tested, compounds 1, 2 and 3 according to the invention or a moisturizing active agent such as glycerol (humectant positive control), is dissolved in a water/n-propanol mixture (80/20) and the solution is deposited onto the SC at a rate of 5 μl/cm^2 followed by air-drying for a total duration of 4 h.
A measurement is taken at T0h, before the treatment, and a measurement T4h is taken after total drying of the treatment.
The variation in the level of moisturization between T0h and T4h is calculated for each condition tested and compared to the references (carrier control and positive control) and to its T0h. The experiments are carried out on at least two different batches of SC and three samples of SC per condition tested.
The variation in the corneometer signal (HCM) after treatment is calculated for each SC sample: DHCMi=HCMi(T4h)−HCMi(T0h).
The results are then expressed as relative percentage in relation to the references, the carrier control and the glycerol positive control corresponding to a level of 0% and 100%, respectively.
Thus, for each experiment, the following are measured: • For the carrier control: DHCMicarrier=HCMicarrier(T4h)−HCMicarrier(T0h) • For the positive control: DHCMiglycerol=HCMiglycerol(T4h)−HCMiglycerol(T0h) • For the active agent: DHCMiactive agent=HCMiactive agent(T4h)−HCMiactive agent(T0h) • % DHCMiactive agent=(DHCMiactive agent−DHCMicarrier)/((DHCMiglycerol−DHCMicarrier) • As specified above, according to this mode of calculation: • % DHCMicarrier=0% • % DHCMiglycerol=100%
The moisturizing potential of an active agent is therefore determined as relative percentage in relation to the positive control.

On to `O=C1N=C(O)C(C2O[C@H](CO)[C@@H](O)[C@H](O)[C@H]2O)O1` (some centres unmarked) [Compound 1], for which the “Mean DHCMiactive agent corr” value is reported as 88%. In addition, the “dielectric capacitance of the stratum corneum (SC) in comparison with glycerol at the same concentration” value (in words, 5% by weight) was “of the same order”. The “dielectric capacitance of the stratum corneum (SC)” value (in words) is recorded as “high”.

As to `O=C1N=C(O)C(C2OC[C@@H](O)[C@H](O)[C@H]2O)O1` (some centres unmarked) [Compound 2], the “Mean DHCMiactive agent corr” value was 63%. The “dielectric capacitance of the stratum corneum (SC)” value (in words) was “high”.

For `OCC(O)CO` [Glycerol, glycerol, reference compound], the “Mean DHCMiactive agent corr” value turned out to be 100%.

Regarding `CN1C(=O)OC(C2O[C@H](CO)[C@@H](O)[C@H](O)[C@H]2O)C1=O` (some centres unmarked) [Compound 3], the “Mean DHCMiactive agent corr” value is listed as 51%. Also, the “dielectric capacitance of the stratum corneum (SC)” value (in words) is given as “high”.

The values are drawn from patent US11420960B2, “Use of 5-oxazolidine-2,4-dione C-glycoside derivatives as moisturizer for the skin” (L'OREAL, priority 2018, dated 2022).
